From publication PMC6135396, “Repurposing antimalarial aminoquinolines and related compounds for treatment of retinal neovascularization” (PLoS ONE, 2018) come the findings set out here.

Bounds are passed on as bounds.

The test system of data set [1] is human retinal microvascular endothelial cells (HRECs). In words: In vitro HREC tube formation assay. The format is cell-based. To be noted: for Stimulation of HREC endothelial tube formation: factor added alone. As for the experimental part: In vitro tube formation assays were carried out as previously described. Briefly, near confluent microvascular endothelial cells were pretreated with VEGF (100 ng/ml) for 2 h and then treated for 24 h with test compounds at serial concentrations, as indicated. Cells without VEGF treatment or with VEGF only were used as control. The cells were then detached and plated sparsely (2.5 ×10^4/well) on 24-well plates coated with 12.5% (v/v) Matrigel (BD, Franklin Lakes, NJ) and left overnight. The medium was then aspirated and 250 μl/well of 12.5% Matrigel was overlaid on the cells for 2 h to allow the polymerization of Matrigel, followed by addition of 500 μl/well of basal medium MCD131 with 10% fetal calf serum (FCS) for 24 h. The following day, the culture plates were observed under a phase contrast microscope and photographed at random in five fields (×10). The tubule length (mm/mm^2) per microscope field was quantified.

The target of data set [2] is T1, angiotensin II type 1 (AT1) (Homo sapiens, UniProt P30556).
T1 construct: β-galactosidase enzyme fragment (enzyme fragment complementation construct); host or cells: CHO-K1 (CHO-K1-AT1, PathHunter)
T1 sequence (P30556 1-359): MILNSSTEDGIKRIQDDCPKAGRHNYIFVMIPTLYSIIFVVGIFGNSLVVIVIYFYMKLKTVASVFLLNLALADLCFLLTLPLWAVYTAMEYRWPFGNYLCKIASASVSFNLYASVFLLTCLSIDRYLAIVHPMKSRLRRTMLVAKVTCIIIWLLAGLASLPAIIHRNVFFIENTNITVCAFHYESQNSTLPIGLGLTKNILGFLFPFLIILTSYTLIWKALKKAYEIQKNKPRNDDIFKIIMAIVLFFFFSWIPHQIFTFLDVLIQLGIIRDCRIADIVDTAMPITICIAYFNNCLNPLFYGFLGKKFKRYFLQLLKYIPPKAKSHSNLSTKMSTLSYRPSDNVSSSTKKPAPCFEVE
In words: AT1 β-arrestin recruitment counter assay (CHO-K1-AT1). The format is cell-based. As for the experimental part: (§1) PathHunter™ GPCR Arrestin and cAMP Hunter™ cell lines (DiscoveRx Corp., Fremont, CA) were used to assay G-protein-dependent signaling and β-arrestin recruitment to APJ. CHO-K1 cells stably expressing APJ (CHO-K1-APJ) or AT1 (CHO-K1-AT1) with β-arrestin/β-galactosidase enzyme fragment complementation constructs were maintained in HAM's F-12 medium (Hyclone, Logan, UT) supplemented with 10% FBS, 1X Penicillin-Streptomycin-Glutamine (Invitrogen; Carlsbad, CA), 300 μg/ml hygromycin (EMD Biosciences, San Diego, CA), and 800 μg/ml Geneticin (Cellgro, Manassas, VA). Primary Human Retinal Microvascular Endothelial Cells (HRECs) were purchased from Cell Systems (Kirkland, WA) and maintained in Complete Classic Medium with CultureBoost-R™ (Cell Systems). Parent CHO-K1 cells were obtained from ATCC and maintained in HAM’s F-12 medium supplemented with 10% FBS, and1X Penicillin-Streptomycin-Glutamine (Invitrogen; Carlsbad, CA). All cells were incubated at 37°C (5% CO2, 95% relative humidity) and maintained at less than 70% to 80% confluence (approximately 75,000 cells/cm^2). Cell heterologously expressing APJ or AT1 were not used after 10 passages. HRECs were not used in any experiments after five passages.
(§2) CHO-K1 cells engineered to over-express APJ or AT1, and β-arrestin were removed from flasks using TrypLE Select (1X), no phenol red (Life Technologies, Grand Island, NY), centrifuged, and resuspended in CP2 Reagent (DiscoveRx, Fremont, CA). Cells were counted using a Countess Automated Cell Counter (Invitrogen, Carlsbad, CA) and 5,000 cells/well were plated in a 384-well tissue culture treated microplate (Corning, Corning, NY). All plates were incubated overnight at 37°C, 5% CO2 in a final volume of 25 μl/well. Following incubation, 5 μl of peptides (10-point concentrations) and controls prepared in ligand buffer (1X HBSS, 10 mM HEPES, 0.1% BSA) were added to cells and incubated at 37°C for 1.5 h. Using a Multidrop Combi Reagent Dispenser (Thermo Scientific), 12 μl of Detection Reagent (DiscoveRx) comprised of substrate and co-factors was added to all wells and incubated at room temperature in the dark for 1 h. Chemiluminescent signal was detected on an EnVision Multi-label plate reader (Perkin Elmer) using a counting time of 1 s/well. The robustness of data from each screening plate and run was monitored by Z’ and Signal Window calculation.

The target of data set [3] is T2, APJ (Homo sapiens, UniProt P35414).
T2 sequence (P35414 1-380): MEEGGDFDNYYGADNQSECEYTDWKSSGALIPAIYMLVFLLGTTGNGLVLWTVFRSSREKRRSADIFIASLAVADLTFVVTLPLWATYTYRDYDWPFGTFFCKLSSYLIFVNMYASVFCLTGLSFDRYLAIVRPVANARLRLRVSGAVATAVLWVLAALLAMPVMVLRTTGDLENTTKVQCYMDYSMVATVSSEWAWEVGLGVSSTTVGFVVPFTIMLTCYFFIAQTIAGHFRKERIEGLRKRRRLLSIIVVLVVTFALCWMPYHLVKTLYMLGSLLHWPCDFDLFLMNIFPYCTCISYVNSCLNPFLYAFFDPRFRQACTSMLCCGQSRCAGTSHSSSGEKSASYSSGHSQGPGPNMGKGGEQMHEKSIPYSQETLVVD
Kind of data set: APJ cAMP assay (primary, cAMP HitHunter, CHO-K1-APJ cells). The format is cell-based. More on the design: host or cells: CHO-K1 (CHO-K1-APJ / CHO-k1-AGTRL1). How it is done: (§3) To identify small-molecule antagonists of the apelin receptor (APJ) we interrogated the SBP compound file of ~425,000 compounds using CHO-k1-AGTRL1 cells overexpressing human APJ and a competitive immunoassay of intracellular cAMP [59]. The compound file was screened at a concentration of 10 μM. For all 333 plates assayed, the average Z-factor = 0.68 and the average S/B = 8.2, indicating a robust assay performance. […] There were 2550 compounds that met this criterion, representing a hit rate of ~0.6%. […] Included in this hit set was a series of aminoquinolines, exemplified by compound 1 (Fig 1B). […] As part of an initial hit-validation strategy, these compounds and three other commercially available analogs were purchased for further testing. The purity and identify of all compounds were confirmed by NMR and LC-MS, and they were subsequently retested in a battery of cell-based assays of APJ function and counter screens. […] (Fig 1D).
as §1
(§4) All reagents unless otherwise specified are components of the cAMP HitHunter (DiscoveRx) kit. Ligand Buffer + 60 μM Forskolin (Cayman Chemical, Ann Arbor, MI) was made fresh on the day of the experiment and used for the dilution of positive and negative controls as well as all peptides. CHO-K1-APJ cells were dispensed into a 1536-well tissue culture microplate (Corning, Corning, NY) using a Multidrop at a seeding density of 1,000 cells/well and returned to the incubator. The next day, the cell culture media was removed and replaced with 15 μl/well of assay buffer (1X HBSS, 10 mM HEPES) containing anti-cAMP antibody (DiscoveRx). […] Plates were incubated at room temperature in the dark for 3 hours prior to chemiluminescence detection on an EnVision (Perkin Elmer) using a counting time of 1 s/well.

Data set [4] can be described thus: Cytotoxicity, ATP-Lite, Fa2N-4 immortalized human hepatocytes. The format is cell-based. To be noted: ATP-lite assay, Fa2-N4 cells. How it is done:
(§5) Fa2N-4 immortalized human hepatocytes (Xenotech) or HREC cells were grown to subconfluency in wells of a 96-well plate and exposed to different concentrations of compounds for 24 h after which the cells were washed and the media and compounds replaced. The cells were returned to the incubator for another 24 h. The extent of cell death (cell lysis) was determined by ATP-Lite reagent (Perkin-Elmer).

The subject of another data set is parental CHO-K1 cells. In words: Parental cAMP counter assay (cells lacking APJ). The data set is classed as cell-based. The note with it: Cricetulus griseus. As for the experimental part: as §3, §1, §4
Data set [5] deals with T2, APJ. In words: APJ β-arrestin recruitment assay (PathHunter, CHO-K1-APJ). The data set is classed as cell-based. More on the design: β-galactosidase enzyme fragment (enzyme fragment complementation construct); host or cells: CHO-K1 (CHO-K1-APJ, PathHunter). The note with it: for IC50: secondary assay, Ap13-mediated β-arrestin recruitment. As for the experimental part:
as §1, §2

Data set [6] concerns HRECs. In words: Cytotoxicity, ATP-Lite, HRECs. The data set is classed as cell-based. The note with it: tested up to 100 μM. How it is done: as §5
The test system of data set [7] is HRECs. To be noted: VEGF 100 ng/mL, Ap13 10 nM. As for the experimental part:
The proliferation of HRECs was monitored by the crystal violet assay as described in our previous publication. […] After washing three times with PBS, the plates were air-dried and the remaining stain was dissolved in, 10% acetic acid and absorbance measured with a microplate reader at 540 nm.

Data set [8] concerns HRECs. The note with it: VEGF 100 ng/mL, Ap13 10 nM. How it is done: Migration was determined by the QCM™ chemotaxis 5 μm 96-well cell migration assay (Chemicon International, Inc.) as per the manufacture’s protocol. […] After 16 h, cells that migrated to the basal side of the chamber insert membrane were detached, lysed and detected using CyQuant GR™ dye. Migration is expressed as percent increase in migrated cells compared to untreated cells.
The source holds these as a separate data set.

[9] abbreviates: Fa2N-4 immortalized human hepatocytes.

Consider `CSCC[C@H](NC(=O)[C@@H]1CCCN1C(=O)CNC(=O)[C@H](CCCCN)NC(=O)[C@H](Cc1c[nH]cn1)NC(=O)[C@H](CO)NC(=O)[C@H](CC(C)C)NC(=O)[C@H](CCCNC(=N)N)NC(=O)[C@@H]1CCCN1C(=O)[C@H](CCCNC(=N)N)NC(=O)[C@@H](N)CCC(N)=O)C(=O)N1CCC[C@H]1C(=O)N[C@@H](Cc1ccccc1)C(=O)O` [Ap13, apelin-13], for which the “Stimulation of HREC endothelial tube formation” value in [1] was “stimulated the formation of endothelial tubes”.
On to `NC(=O)c1ccc(Nc2ccnc3cc(Cl)ccc23)cc1` [Compound 1, 4-((7-chloroquinolin-4-yl)amino)benzamide], for which the 50% inhibitory concentration (IC50) was above 40 µM in [2], 0.556 ± 0.105 µM on APJ [3], above 99 µM in the data set with parental CHO-K1 cells and above 99 µM against APJ [5]. In data set [4] (setting [9]), the IC50 at 48 h was above 50 µM. Besides, the “Antagonism of Ap13-mediated recruitment of β-arrestin” value (“Antagonism … of β-arrestin” below) on APJ [5] was “neither AQ nor 1, 3, 4, 5, or 6 antagonized”.
Consider `O=C(OCC(O)CO)c1ccccc1Nc1ccnc2cc(Cl)ccc12` (stereo not drawn) [Compound 3, glafenine], for which the IC50 in data set [2] is above 99 µM; against APJ [3], 1.15 ± 0.025 µM; in the data set on parental CHO-K1 cells, above 99 µM; at APJ [5] it was above 99 µM. In data set [4] (setting [9]), this compound registered an IC50 at 48 h above 50 µM. Besides, at APJ [5], the “Antagonism … of β-arrestin” value is listed as “neither AQ nor 1, 3, 4, 5, or 6 antagonized”.
Take `COc1ccc(Nc2ccnc3cc(Cl)ccc23)cc1` [Compound 4, 7-chloro-N-(4-methoxyphenyl)quinolin-4-amine]: the IC50 in data set [2] was above 40 µM; at APJ [3] it was 1.42 ± 0.038 µM; in the data set with parental CHO-K1 cells, above 99 µM; against APJ [5], above 40 µM. Besides, in data set [4], the IC50 at 48 h is above 50 µM. At APJ [5], the “Antagonism … of β-arrestin” value is “neither AQ nor 1, 3, 4, 5, or 6 antagonized”.
As to `O=C(O)c1ccccc1Nc1ccnc2cc(Cl)ccc12` [Compound 5, 2-((7-chloroquinolin-4-yl)amino)benzoic acid], the IC50 in [2] was above 40 µM; at APJ [3], 0.937 ± 0.084 µM; in the data set on parental CHO-K1 cells it was above 99 µM; against APJ [5], above 40 µM. The “Antagonism … of β-arrestin” value on APJ [5] is “neither AQ nor 1, 3, 4, 5, or 6 antagonized”.
Take `O=C(c1ccccc1Nc1ccnc2cc(Cl)ccc12)N1CCOCC1` [Compound 6, (2-((7-chloroquinolin-4-yl)amino)phenyl)(morpholino) methanone]: the IC50 in data set [2] is above 40 µM; against APJ [3], 23.5 ± 0.161 µM; in the data set with parental CHO-K1 cells, above 99 µM; against APJ [5], above 99 µM. On APJ [5], the “Antagonism … of β-arrestin” value is recorded as “neither AQ nor 1, 3, 4, 5, or 6 antagonized”.
Turning to `CCNCc1cc(Nc2ccnc3cc(Cl)ccc23)ccc1O` [DEAQ, desethylamodiaquine], the “APJ antagonism in the APJ cAMP assay” value on APJ [3] is on record as “effective APJ antagonist equipotent to the parent AQ”.
On to `O=C(Oc1coc(CSc2ncccn2)cc1=O)c1ccc([N+](=O)[O-])cc1` [ML221, 4-oxo-6-((pyrimidin-2-ylthio)methyl)-4H-pyran-3-yl 4-nitrobenzoate], for which the “Effect on Ap13-dependent increase in HREC tube formation” value in data set [1] (Ap13-induced, concentration-dependent) was “blocked Ap13-dependent increases in tube formation”. Moreover, the “Effect on VEGF-induced HREC tube formation” value in data set [1] (VEGF 100 ng/mL, absence of exogenous Ap13) is “A similar effect was observed”. For the same compound, the “Cytotoxicity to HRECs” value in the data set with HRECs [6] is on record as “Neither ML221 nor AQ were significantly toxic”.
Consider VEGF, for which the “Stimulation of HREC endothelial tube formation” value in data set [1] was “stimulated the formation of endothelial tubes”. In addition, the “Effect on HREC proliferation” value in the data set on HRECs [7] is “stimulated HREC proliferation and migration”. Also, the “Effect on HREC migration” value with HRECs [8] is “stimulated HREC proliferation and migration”.
